Source: US20210106582A1, “COMPOUNDS AND PHARMACEUTICAL COMPOSITIONS THEREOF FOR USE IN THE TREATMENT OF FIBROTIC DISEASES” (Galapagos NV, priority 2017, published 2021)
Values joined by “and” are separate entries in the source; they are usually repeats but may differ in a detail not shown here. Equal entries are not always repeated.

Key:
Format in all cases: in vivo
[1] = tested on: male C57BL/6 mice fed a Methionine and Choline-deficient (MCD) diet; assay: MCD model (methionine and choline deficient diet, NASH); conditions: individual animals, 30 mg/kg q.d. p.o., MCD diet 8 wk
Protocol: The methionine and choline deficient (MCD) diet model is used to produce a severe phenotype of NASH in […] (Santhekadur et al., 2017), and is used to evaluate the compounds of the invention.
At induction, 8 weeks-old male C57BL/6 mice (Janvier Labs, France) maintained at 22° C.±2° C. and humidity at 55%±10%, with a 12-hrs dark/light cycle are fed a standard diet (chow (A04C-10, Safe, France) or a Methionine and Choline-deficient (MCD) diet (EFTD.90262, Ssniff, Soest, Germany) for 8 weeks. All animals have access to filtered tap drinking water.
Four weeks after the induction, the animals are either assigned to a control-group or a test-group.
Test group animals are dosed with the a test compound, i.e. Compound A (CpdA) or Compound B (CpdB), at 30 mg/kg, q.d., p.o. formulated in methylcellulose 0.5%, 1 equivalent HCl. The control groups receives a similar volume of vehicle (10 mL/kg), i.e. the standard diet for control group 1 (C1) and the MCD diet for control group 2 (C2). Mice are randomly assigned to a treatment group according to their body weight in order to ensure a homogenous reparation.
After sacrifice (week 8), the activity of the test compound on the development of NASH is assessed by plasma ALT and AST levels and in liver by histopathological examination of fibrosis and steatosis (Sirius red, Oil Red O), collagen (OH-Pro) and triglycerides content and expression of fibrotic and inflammatory genes.
In addition, the NAS score is determined to further evaluate the compounds with respect to their effect on diet induced NASH. The nonalcoholic fatty liver disease activity scoring (NAS) has been proposed and accepted as a tool to measure changes in NAFLD during therapeutic trials (Brunt et al., 2011; Kleiner et al., 2005).
The NAS score (0-8) is defined as the sum of the steatosis score (0-3), lobular inflammation score (0-3), ballooning score (0-2). A NAS score of ≥5 is indicative of a NASH diagnostic.

[2] = tested on: male C57BL/6 mice fed CDAHF diet; assay: CDAHFD model (choline-deficient, L-amino acid-defined, high-fat diet); conditions: individual animals, CDAHFD 10W, 30 mg/kg q.d. p.o.
[3] = tested on: C57BL/6N male mice, bleomycin induced pulmonary fibrosis; assay: Therapeutic bleomycin induced pulmonary fibrosis 21-day mice model; conditions: individual animals, BLM, CpdA 30 mg/kg BID PO D7-D21
Protocol: The aim of the study is to test the efficacy of a test compound at three different doses in a 21-day model of bleomycin induced pulmonary fibrosis in mice.
11 week-old C57BL/6N male mice from Charles River (Italy) are maintained on 12 h light/dark cycle at 22° C. with ad libidum access to tap water and food.
On day 0, all mice in groups 2-4 receive a 1.5 U/kg oropharyngeal administration of bleomycin (BLM) to induce pulmonary fibrosis Animals in group 1 are not administered bleomycin, but instead receive a single dose of saline via the oropharyngeal route, and are considered sham control mice.
Animals are examined clinically twice daily. List of clinical signs and parameters are indicated in humane endpoints table. Animals are weighed daily starting from DO.
On day 21, lung functionality is determined. After deep anesthesia induced by an intraperitoneal injection (10 mL/kg) of a solution of xylazine (5 mg/kg) and ketamine (75 mg/kg), the trachea is exposed through midline incision and a cannula is inserted. Mice are ventilated with a tidal volume of 10 mL/kg at a frequency of 150 breaths/minute. FlexiVent (SCIREQ®) perturbations are performed three times. Deep Inflation and Pressure-Volume loops (PV loops) with stepwise increasing pressure are performed to measure the Inspiratory Capacity and stepwise pressure-driven perturbation (PVs-P). PV loops between 0 and 30 cm H2O are generated to obtain Total Lung Capacity (A). A snapshot perturbation maneuver is imposed, which is a threefold sinusoidal wave of in- and expiration controlled by the ventilator, resulting in resistance (Rrs), compliance (Crs), and elastance (Ers) of the whole respiratory system (airways, lung and chest wall). A value for each group is calculated with average FlexiVent-validated measurements recorded in each individual subject.
Then, two hours after the last dose of test substance and nintedanib, mice are sacrificed by anesthetic overdose. The lungs are excised and weighed individually. The lungs are then placed into marked bottles containing 10% buffered formalin for further histopathological evaluation.
Body weight data and lung weight data are processed using MS Excel. Statistical analysis and graphical presentation are performed using GraphPad Prism software (version 5.04).
For histopathological evaluation, whole lungs are embedded in paraffin and stained with Mallory's trichrome.
Pulmonary histological changes are assessed using Matsuse's modification of Ashcroft score (Ashcroft et al., 1988; Matsuse et al., 1999). Statistical analysis and graphical presentation is performed using GraphPad Prism software (version 5.04). Mann-Whitney test is employed.
Differences between groups are considered statistically significant when p<0.05.

`O=c1nc(OC[C@@H]2COCCO2)cc2n1CCc1cc(C#CC3CC3)ccc1-2` [Compound A, 9-Cyclopropylethynyl-2-((S)-1-[1,4]dioxan-2-ylmethoxy)-6,7-dihydro-pyrimido[6,1-a]isoquinolin-4-one] was tested, and the “TIMP1 NRQ gene expression” value ([1]; NRQ scaled versus disease, Fig 8 Panel B) was 1.0 and 1.1 and 0.4 (3×) and 0.8 and 0.9 and 0.1 and 0.5 and 2.3, the “Col1a NRQ gene expression” value ([1]; dosing from week 4, Normalised Relative Quantity scaled versus disease, FIG. 8 Panel A) was 0.3 and 0.8 (2×) and 1.0 and 0.5 and 0.1 and 0.4 and 2.1 and 0.6 and 2.4 and the “TNfα NRQ gene expression” value ([1]; liver, NRQ scaled versus disease, Fig 9 Panel A) was 0.8 (3×) and 1.4 and 1.0 and 0.7 and 0.5 and 0.1 and 1.5 and 0.4. The “CC12 NRQ gene expression” value ([1]; liver, NRQ scaled versus disease, Fig 9 Panel B) was 0.5 (4×) and 1.2 and 0.6 (2×) and 0.7 and 0.2 and 1.0, the NAS scoring data ([1]; total NAS score (0-8), Fig 10) was 7.0 (4×) and 6.0 (4×) and 5.0 and 8.0 and the “Col1a1 expression profiles (NRQ-scaled versus Disease-Vehicle)” value ([2]; Fig 12 panel A) was 1.76 and 0.36 and 0.49 and 0.35 and 0.43 and 0.38 and 0.10 and 0.18 and 0.12 and 0.26. For the same molecule, the “TNFα expression profiles (NRQ-scaled versus Disease-Vehicle)” value ([2]; Figure 12 panel B) was 0.53 (2×) and 0.89 and 0.77 and 0.46 and 0.67 and 0.80 and 0.64 and 0.97 and 0.59, the “Fibrosis (Sirius red area %)” value ([2]; liver, Figure 11) was 0.53% (2×) and 0.89% and 0.77% and 0.46% and 0.67% and 0.80% and 0.64% and 0.97% and 0.59% and the “Compliance of the Respiratory System” value ([3]; Figure 14 panel B) was 0.034 mL/cmH2O and 0.030 mL/cmH2O and 0.035 mL/cmH2O and 0.037 mL/cmH2O and 0.036 mL/cmH2O and 0.033 mL/cmH2O and 0.041 mL/cmH2O (2×) and 0.031 mL/cmH2O and 0.038 mL/cmH2O and 0.046 mL/cmH2O and 0.042 mL/cmH2O. The “Elastance of the Respiratory System” value ([3]; Figure 14 panel C) was 29.43 cmH2O/mL and 33.18 cmH2O/mL and 28.94 cmH2O/mL and 26.99 cmH2O/mL and 27.50 cmH2O/mL and 30.18 cmH2O/mL and 24.40 cmH2O/mL and 31.90 cmH2O/mL and 26.35 cmH2O/mL and 21.92 cmH2O/mL and 23.92 cmH2O/mL and 24.49 cmH2O/mL, the “Ashcroft Score” value ([3]; Matsuse's modification, Figure 13) was 2.4 and 3.0 and 2.5 and 3.3 and 3.4 (2×) and 2.9 (2×) and 2.7 (2×) and 3.6 and 2.3 and 2.0 and 2.1 and the “Inspiratory Capacity” value ([3]; day 21 FlexiVent, Figure 14 panel A) was 0.58 mL (2×) and 0.66 mL and 0.65 mL and 0.59 mL and 0.75 mL and 0.69 mL (2×) and 0.84 mL and 0.73 mL and 0.71 mL.
